Results reported in patent publication EP1961762A1, “Inhibitors of protein phosphatase 1/GADD34, preparation and uses thereof” (Institut Gustave Roussy, priority 2007, dated 2008).
“Also recorded” adds a separate entry of the source.

Assays:
CT26 tumour cells = assay: Anti-tumour vaccination with dying treated CT26 tumour cells, challenge with live tumour cells; format: in vivo, BALB/c mice; details: for immunogenic apoptosis / immunogenic cell death (protection against tumour growth): dying CT26 cells treated with the agent injected into one flank, live tumour cells into the opposite flank 8 days later
CT26 cells = assay: Phagocytosis of tumour cells by dendritic cells; format: cell-based, BALB/c mice; details: within a few hours after treatment
Method: BM cells were flushed from the tibias and femurs of BALB/c mice with culture medium composed of RPMI 1640 medium (Invitrogen Life Technologies) supplemented with 10% heat-inactivated FBS (Invitrogen), sodium pyruvate, 50 µM 2-ME (Sigma), 10 mM HEPES (pH 7.4), and penicillin/streptomycin (Invitrogen). After one centrifugation, BM cells were resuspended in Tris-ammonium chloride for 2 min to lyse RBC. After one more centrifugation, BM cells (1 x 10^6 cells/ml) were cultured in medium supplemented with 100 ng/ml recombinant mouse FLT3 ligand (R&D systems) in 6-well plates (Costar Corning). After 7 days, the non-adherent and loosely adherent cells were harvested with Versene, washed and transferred in 12-well plates (1.5 x 10^6 cells/plate) for cocultures with tumour cells.
In 12-well plates, 25 x 10^6 adherent CT26 cells were labelled with Celltracker Green (Calbiochem) and then incubated with drugs. In some experiments viable CT26 were coated with 2µg/10^6 cells of chicken anti-CRT antibody (ABR affinity bioreagents) or an isotype control for 30 min prior to washing and feeding to dendritic cells Cs. Alternatively CT26 cells were coated with 2µg/10^6 cells of rCRT on ice for 30 min and washed twice prior to addition to dendritic cells. […] Phagocytosis was assessed by FACS analysis of double positive cells. […]

ERP57 [1] = assay: Biotinylated surface proteins, 2D electrophoresis and mass spectroscopy; details: short-term (4 h) treatment
CRT [2] = assay: as above; details: short-term (4 h) treatment
CRT and/or ERp57 = assay: Immunofluorescence staining of unfixed human tumour cell lines; format: cell-based; details: variety of human tumour cell lines
MCA205, B16F10, J558 = assay: CRT exposure on murine tumour cell lines; format: cell-based
CRT [3] = assay: Cell surface CRT on enucleated CT26 cells (cytoplasts); format: cell-based, murine
Method: (§1) CT26 cells (on a glass slide or in 12-well plates) were first washed with FACS buffer (1× PBS, 5% fetus bovine serum, and 0.1% sodium azide) and then incubated with rabbit anti-mouse CRT antibody (1:100, Stressgen) in FACS buffer at 4 °C for 30 min. Cells reacted with anti-rabbit IgG (H+L) Alexa fluor 488-conjugates (1:500) in FACS buffer at 4 °C for 30 min. After washing three times with FACS buffer, surface CRT was detected by cytofluorometric analysis on a FACS Vantage. In some experiments, cells were fixed with 4% paraformaldehyde, counterstained with Hoechst (2µM; Sigma), followed by fluorescence microscopic assessment with a Leica IRE2 microscope equipped with a DC300F camera.
Trypsinized CT26 cells were enucleated as described in the publication of Andreau, K. et al. Contagious apoptosis facilitated by the HIV-1 envelope. Fusion-induced cell-to-cell transmission of a lethal signal. J. Cell Sci. 117, 5643-53 (2004). Briefly, cells were treated in 2 ml of complete RPMI medium containing cytochalasin B (10µg/ml; Sigma) and DNase I (80U/ml; Sigma). […] Then the cell surface CRT was detected (see materials and methods) and the viability was determined by with propidium iodine staining (2µg/ml, Sigma) for 5 min followed by cytofluorometric analysis. […] Phagocytosis was assessed by FACS analysis of double positive cells.

CRT [4] = assay: Fluorescence detection of cell surface CRT on CT26 cells; format: cell-based, murine
Method: CT26 cells were cultured at 37°C under 5% CO2 in RPMI 1640 medium supplemented with 10% FCS, penicillin, streptomycin, 1 mM pyruvate and 10 mM HEPES in the presence of doxorubicin (DX; 24 h, 25 µM), mitoxantrone (Mitox; 24h, 1 µM, Sigma), idarubicin (24h, 1 µM, Aventis, France), mitomycin C (30 µM, 48 h; Sanofi-Synthelabo, France), and/or zVAD-fmk (50 µM, 24 h; Bachem), tunicamycin (24h, 65 µM), thapsigargin (24h, 30µM), brefeldin A (24h, 50 µM, Sigma), etoposide (48h, 25µM, Tava classics), MG132 (48h, 10 µM), ALLN (48h, […]), betulinic acid (24h, 10 µM), Hoechst 33343 (24h, 0,2µM), camptothecine (24h, 15 µM), lactacystin (48h, 60 µM), BAY 11-8072 (24h, 30µM), staurosporine (24h, 1.5 µM), bafilomycin A1 (48h, 300 nM), arsenic trioxide (24h, 30µM), C2-ceramide (C2-C; 24h, 60 µM,), calyculin A (48h, 30nM), or tautomycin (48h, nM, Sigma) and/or salubrinal (48h, µM, Calbiochem).
as §1

[5] = test system: CRT, KDEL receptor and ERp57; assay: Double immunofluorescence staining of CRT, KDEL receptor and ERp57; format: cell-based; details: HeLa cells, 1 µM, 2h
CT26 tumours [6] = assay: Intratumoural treatment of established CT26 tumours, immunocompetent mice
Method: (§2) All animals were maintained in specific pathogen-free conditions and all experiments followed the FELASA guidelines. […] Tumours were evaluated weekly, using a caliper. In a series of experiments, BALB/c (wild type or nu/nu) carrying palpable CT26 tumours (implanted 14 days before for wild type or 7 days before for nu/nu mice by injection of 10^6 tumour cells) received a single intratumoural injection of 100 µM PBS containing the same concentration of anti-cancer agents and PP1/GADD34 inhibitors as those used in vitro, as well as rCRT (15 µg).

HeLa, A549, HCT116 = assay: CRT exposure on human tumour cell lines; format: cell-based
CT26 tumours [7] = assay: Intratumoural treatment of established CT26 tumours, nu/nu mice
Method: as §2

ERp57 [8] = assay: Flow cytometric detection of surface ERp57; format: cell-based

SMILES	immunogenic apoptosis / immunogenic cell death (protection against tumour growth) (CT26 tumour cells)	phagocytosis of treated tumour cells by DC (CT26 cells)	surface exposure of ERP57 (ERP57 [1])	induction of surface CRT (factor) (CRT [2]; doxorubicin alone)	induction of surface CRT (factor) (CRT [2]; doxorubicin combined with Z-VAD-fmk)	exposure of CRT and/or ERp57 on the cell surface (CRT and/or ERp57)	CRT exposure (MCA205, B16F10, J558)	time to CRT exposure in enucleated cells (cytoplasts) (CRT [3]) [h]	CRT exposure triggered by PP1 or GADD34 depletion (CRT [4]; siRNA knock-down, then mitoxantrone 2 h)	surface appearance of CRT, KDEL receptor and ERp57 [5]	therapeutic effect of single agent (CT26 tumours [6]; single intratumoural injection, 14-day-old tumours)	CRT exposure (HeLa, A549, HCT116)	therapeutic effect of single agent (CT26 tumours [7]; single intratumoural injection)	surface exposure of ERp57 (ERp57 [8])	CRT exposure (CRT [4])	therapeutic effect of single agent (CT26 tumours [6]; mouse, in vivo)	tumour response (CT26 tumours [6]; mouse, in vivo)	immunogenic cell death (CT26 tumour cells; mouse, in vivo)	immunogenic potential of cells succumbing to etoposide (CT26 tumour cells; mouse, in vivo)	therapeutic effect of single agent (CT26 tumours [7]; mouse, in vivo)
COc1cccc2c1C(=O)c1c(O)c3c(c(O)c1C2=O)C[C@@](O)(C(=O)CO)C[C@@H]3O[C@H]1C[C@H](N)[C@H](O)[C@H](C)O1 [doxorubicin]	elicited immunogenic cell death	acquired the property to be phagocytosed by DC quickly	specifically induced	6	1.8	Very similar results	–	–	–	–	–	–	–	–	–	–	–	–	–	–
O=C1c2c(O)ccc(O)c2C(=O)c2c(NCCNCCO)ccc(NCCNCCO)c21 [mitoxantrone]	elicited immunogenic cell death	acquired the property to be phagocytosed by DC quickly	–	–	–	–	induced CRT exposure	≤ 1	not further enhanced	appear together on the surface	permanent regression in some but not all cases	induced CRT exposure	no cure	–	–	–	–	–	–	–
CO[C@H]([C@H](O)CC(=O)[C@@H](C)[C@@H](O)CC[C@@H](C)[C@@H]1O[C@]2(CC[C@@H](C)[C@H](CC[C@H](C)C(C)=O)O2)CC[C@@H]1C)[C@H](OC(=O)C[C@@H](O)C1=C(C)C(=O)OC1=O)C(C)C [tautomycin]	–	–	–	–	–	–	–	–	–	–	–	–	–	stimulates the surface exposure or ERp57	efficiently induced; also recorded: greatly enhanced	no major therapeutic effect	stable disease or complete tumour regression	not sufficient to induce immunogenic cell death	greatly enhanced	no major therapeutic effect
